In patent publication US20070128217A1 (priority 2003, published 2007):

How the values were obtained:
[1] = tested on: antibodies in sera from SARS patients (sera 1a, 1b, 2, 6, 37, 62, London, SARS-yellow, SARS-green); assay type: binding, human; set-up: Binding of serum 6 to linear peptides of protein X1 of SARS-CoV Urbani / Binding of serum 37 to linear peptides of protein X1 of SARS-CoV Urbani / Binding of serum 6 to looped/cyclic peptide (PEPSCAN-ELISA) / Binding of serum 37 to looped/cyclic peptide (PEPSCAN-ELISA) / Binding of serum 37 to looped/cyclic peptides of protein X1 of SARS-CoV Urbani / Binding of serum 6 to linear peptides of protein X2 / Binding of serum 37 to linear peptides of protein X2 / Binding of serum 37 to looped/cyclic peptides of protein X2 of SARS-CoV Urbani / Binding of serum 6 to linear peptides of protein M of SARS-CoV Urbani / Binding of serum 37 to linear peptides of protein M of SARS-CoV Urbani / Binding of serum 6 to looped/cyclic peptides of protein M of SARS-CoV Urbani / Binding of serum 37 to looped/cyclic peptides of protein M of SARS-CoV Urbani / Binding of serum 6 to linear peptides of protein X3 of SARS-CoV Urbani / Binding of serum 37 to linear peptides of protein X3 of SARS-CoV Urbani / Binding of serum 37 to looped/cyclic peptides of protein X3 of SARS-CoV Urbani / Binding of serum 6 to linear peptides of protein X4 of SARS-CoV Urbani / Binding of serum 37 to linear peptides of protein X4 of SARS-CoV Urbani / Binding of serum 37 to looped/cyclic peptides of protein X4 of SARS-CoV Urbani / Binding of serum 6 to linear peptides of protein X5 of SARS-CoV Urbani / Binding of serum 37 to linear peptides of protein X5 of SARS-CoV Urbani / Binding of serum 37 to looped/cyclic peptides of protein X5 of SARS-CoV Urbani / Binding of serum 6 to linear peptides of protein N of SARS-CoV Urbani / Binding of serum 37 to linear peptides of protein N of SARS-CoV Urbani / Binding of serum 6 to linear peptide (PEPSCAN-ELISA) / Binding of serum 1a to looped/cyclic peptides of protein N of SARS-CoV Urbani / Binding of serum 1b to looped/cyclic peptides of protein N of SARS-CoV Urbani / Binding of serum 2 to looped/cyclic peptides of protein N of SARS-CoV Urbani / Binding of serum 6 to looped/cyclic peptides of protein N of SARS-CoV Urbani / Binding of serum 37 to looped/cyclic peptides of protein N of SARS-CoV Urbani / Binding of serum 62 to looped/cyclic peptides of protein N of SARS-CoV Urbani / Binding of serum London to looped/cyclic peptides of protein N of SARS-CoV Urbani / Binding of serum SARS-green to looped/cyclic peptides of protein N of SARS-CoV Urbani: unit not given here
[2] = tested on: recombinant human anti-SARS-CoV antibody 03-018; assay type: binding; set-up: Binding of antibody 03-018 to linear peptides of the N protein of SARS-CoV Urbani / Binding of antibody 03-018 to looped/cyclic peptides of the N protein of SARS-CoV Urbani: unit not given here
[3] = tested on: rabbit serum obtained by immunizing a rabbit with the SARS-CoV strain Frankfurt 1; assay type: binding; set-up: Binding of a rabbit serum to linear peptides / Binding of a rabbit serum to looped peptides / Rabbit serum linear peptides / Rabbit serum looped peptides / Binding of a rabbit serum to linear peptides of protein N of SARS-CoV Urbani (Rabbit serum linear peptides) / Binding of a rabbit serum to looped/cyclic peptides of protein N of SARS-CoV Urbani (Rabbit serum looped peptides): unit not given here
[4] = tested on: control sera (pooled serum of ten healthy LUMC hospital workers; commercial negative donor pooled serum from the Dutch bloodbank); assay type: binding, human; set-up: Binding of Control serum LUMC to linear peptides / Binding of Control serum Blood-bank to linear peptides / Binding of Control serum LUMC to looped peptides / Binding of Control Serum Blood-Bank to Looped peptides / Binding of Control serum LUMC to linear peptides of the protein M of SARS-CoV Urbani / Binding of Control serum Blood-bank to linear peptides of the protein M of SARS-CoV Urbani / Binding of Control serum LUMC to looped peptides of the protein M of SARS-CoV Urbani / Binding of Control Serum Blood-Bank to Looped peptides of the protein M of SARS-CoV Urbani: unit not given here

Sequence	Binding of serum 1a to linear peptides of protein N of SARS-CoV Urbani [1]	Binding of serum 1a to looped/cyclic peptides of protein N of SARS-CoV Urbani [1]	Binding of serum 1b to linear peptides of protein N of SARS-CoV Urbani [1]	Binding of serum 1b to looped/cyclic peptides of protein N of SARS-CoV Urbani [1]	Binding of serum 2 to linear peptides of protein N of SARS-CoV Urbani [1]	Binding of serum 2 to looped/cyclic peptides of protein N of SARS-CoV Urbani [1]	Binding of serum 6 to linear peptides of protein N of SARS-CoV Urbani [1]	Binding of serum 6 to looped/cyclic peptides of protein N of SARS-CoV Urbani [1]	Binding of serum 37 to linear peptides of protein N of SARS-CoV Urbani [1]	Binding of serum 37 to looped/cyclic peptides of protein N of SARS-CoV Urbani [1]	Binding of serum 62 to linear peptides of protein N of SARS-CoV Urbani [1]	Binding of serum 62 to looped/cyclic peptides of protein N of SARS-CoV Urbani [1]	Binding of serum London to linear peptides of protein N of SARS-CoV Urbani [1]	Binding of serum London to looped/cyclic peptides of protein N of SARS-CoV Urbani [1]	Binding of serum SARS-green to looped/cyclic peptides of protein N of SARS-CoV Urbani [1]	Binding of serum SARS-yellow to looped/cyclic peptides of protein N of SARS-CoV Urbani [1]	Binding of antibody 03-018 to linear peptides of the N protein of SARS-CoV Urbani [2]	Binding of antibody 03-018 to looped/cyclic peptides of the N protein of SARS-CoV Urbani [2]	Binding of a rabbit serum to linear peptides of protein N of SARS-CoV Urbani (Rabbit serum linear peptides) [3]	Binding of a rabbit serum to looped/cyclic peptides of protein N of SARS-CoV Urbani (Rabbit serum looped peptides) [3]	other results
TRRVRGGDGKMKELS	0.3	0.2	0.2	0.1	0.3	0.2	0.3	0.2	0.7	0.4	0.8	0.3	0.5	0.3	0.0	0.2	0.1	0.2	0.2	0.3	Binding of serum SARS-green to linear peptides of protein N of SARS-CoV Urbani [1]: 0.3; Binding of serum SARS-yellow to linear peptides of protein N of SARS-CoV Urbani [1]: 0.7; Binding of Control Serum Blood-Bank to Looped peptides [4]: 0.5; Binding of Control serum Blood-bank to linear peptides [4]: 0.7; Binding of Control serum LUMC to linear peptides [4]: 0.8; Binding of Control serum LUMC to looped peptides [4]: 0.5
TVTKKSAAEASKKPR		0.2		0.1		0.2		0.1		0.5		0.3		0.3	0.0	0.2	0.1	0.2	0.2	0.5	Recognition of the peptide by sera of SARS-CoV infected individuals, and form (linear, looped/cyclic) in which it is recognized [1]: recognized in linear form; Binding of Control Serum Blood-Bank to Looped peptides [4]: 0.4; Binding of Control serum Blood-bank to linear peptides [4]: 1.0; Binding of Control serum LUMC to linear peptides [4]: 1.0; Binding of Control serum LUMC to looped peptides [4]: 0.3
TVTLLPAADMDDFSR	0.2	0.3	0.1	0.2	0.1	0.2	0.2	0.0	0.7	0.4	0.5	0.1	0.5	0.2	0.5	0.2	0.1	0.2	0.1	0.3	Binding of serum SARS-green to linear peptides of protein N of SARS-CoV Urbani [1]: 0.3; Binding of serum SARS-yellow to linear peptides of protein N of SARS-CoV Urbani [1]: 0.5; Control Serum Blood-Bank Looped peptides [4]: 0.3; Control serum Blood-bank linear peptides [4]: 0.6; Control serum LUMC linear peptides [4]: 0.6; Control serum LUMC looped peptides [4]: 0.3
TWLTYHGAIKLDDKD	0.2	0.2	0.1	0.2	0.1	0.2	0.2	0.1	0.6	0.4	0.6	0.3	0.5	0.2	0.3	0.3	0.1	0.2	0.1	0.3	Binding of serum SARS-green to linear peptides of protein N of SARS-CoV Urbani [1]: 0.3; Binding of serum SARS-yellow to linear peptides of protein N of SARS-CoV Urbani [1]: 0.6; Control Serum Blood-Bank Looped peptides [4]: 0.4; Control serum Blood-bank linear peptides [4]: 0.6; Control serum LUMC linear peptides [4]: 0.6; Control serum LUMC looped peptides [4]: 0.4
